# Measured values reported in US8202844B2, “Indole antiviral compositions and methods” (The Regents of the University of Michigan, priority 2003, dated 2012).
# Like-named read-outs stand apart in the source and are kept apart here.
# How the values were obtained:
# [1] = Cytotoxicity in stationary HFF cells, microscopic inspection; type: cell-based; conditions: human, read-out: 50% Inhibitory Concentration, HFF Cytotoxicity
# Method: (§1) Cytotoxicity assays. Two different assays were used for routine cytotoxicity testing. (i) Cytotoxicity produced in stationary HFF cells was determined by microscopic inspection of cells not affected by the virus used in plaque assays (Turk, et al., Agents Chemother. 1987, 31, 544-550, herein incorporated by reference). (ii) The effect of compounds during two population doublings of KB cells was determined by crystal violet staining and spectrophotometric quantitation of dye eluted from stained cells as described earlier (Prichard, et al., Antiviral Res. 1991, 35, 1060-1065, herein incorporated by reference). Briefly, 96-well cluster dishes were planted with KB cells at 3000-5000 cells per well. After overnight incubation at 37° C., test compound was added in quadruplicate at six to eight concentrations. Plates were incubated at 37° C. for 48 h in a CO2 incubator, rinsed, fixed with 95% ethanol, and stained with 0.1% crystal violet. Acidified ethanol was added and plates read at 570 nm in a spectrophotometer designed to read 96-well ELISA assay plates.
# (§2) Data Analysis. Dose response relationships were used to quantitate drug effects by linear regression of the percent inhibition of parameters derived in the preceding assays against log10 drug concentrations. Fifty percent inhibitory concentrations (IC50's) were calculated from the linear portions of the regression lines. Samples containing positive controls (acyclovir for HSV-1, GCV for HCMV, and 2-acetylpyridine thiosemicarbazone for cytotoxicity) were used in all assays.
# [2] = Cytotoxicity in growing KB cells, crystal violet staining; type: cell-based; conditions: human, read-out: 50% Inhibitory Concentration, KB Cytotoxicity
# Method: as §1, §2
# [3] = system: herpes simplex virus type 1 (HSV-1); assay: HSV-1 ELISA; type: cell-based, HSV-1 KOS strain in BSC-1 cells
# Method: (§3) Virological procedures. The Towne strain, plaque-purified isolate Po, of HCMV was kindly provided by Dr. Mark Stinski, University of Iowa. The KOS strain of HSV-1 was used in most experiments and was provided by Dr. Sandra K. Weller, University of Connecticut. Stock HCMV was prepared by infecting HFF cells at a multiplicity of infection (m.o.i.) of <0.01 plaque-forming units (p.f.u.) per cell as detailed previously (Turk, et al., Agents Chemother. 1987, 31, 544-550, herein incorporated by reference). High titer HSV-1 stocks were prepared by infecting KB cells at an m.o.i. of <0.1 also as detailed previously (see Turk et al.). Virus titers were determined using monolayer cultures of HFF cells for HCMV and monolayer cultures of BSC-1 cells for HSV-1 as described earlier (Prichard, et al., J. Virol. Methods 1990, 28, 101-106, herein incorporated by reference). Briefly, HFF or BSC-1 cells were planted as described above in 96-well cluster dishes and incubated overnight at 37° C. The next day cultures were inoculated with HCMV or HSV-1 and serially diluted 1:3 across the remaining eleven columns of the 96-well plate. After virus adsorption the inoculum was replaced with fresh medium and cultures were incubated for seven days for HCMV, two or three days for HSV-1. Plaques were enumerated under 20-fold magnification in wells having the dilution which gave 5 to 20 plaques per well. Virus titers were calculated according to the following formula: Titer (p.f.u./mL)=number of plaques×5×3^n; where n represents the n^th dilution of the virus used to infect the well in which plaques were enumerated.
# HSV-1 ELISA. An ELISA was employed (Prichard, et al., Antiviral Res. 1990, 14, 181-206, herein incorporated by reference) to detect HSV-1. Ninety-six-well cluster dishes were planted with 10,000 BSC-1 cells per well in 200 μL per well of MEM(E) plus 10% calf serum. After overnight incubation at 37° C., selected drug concentrations in quadruplicate and HSV-1 at a concentration of 100 p.f.u./well were added. Following a 3-day incubation at 37° C., medium was removed, plates were blocked, rinsed, and horse radish peroxidase conjugated rabbit anti-HSV-1 antibody was added. Following removal of the antibody containing solution, plates were rinsed, and then developed by adding 150 μl per well of a solution of tetramethylbenzidine as substrate. The reaction was stopped with H2SO4 and absorbance was read at 450 and 570 nm. Drug effects were calculated as a percentage of the reduction in absorbance in the presence of each drug concentration compared to absorbance obtained with virus in the absence of drug.
# as §2
# [4] = system: human cytomegalovirus (HCMV); assay: HCMV plaque reduction assay; type: cell-based, HCMV Towne strain in HFF cells; conditions: for IC50: read-out: 50% Inhibitory Concentration, HCMV Activity
# Method: as §3
# HCMV plaque reduction assay. HFF cells in 24-well cluster dishes were infected with approximately 100 p.f.u. of HCMV per cm^2 cell sheet using the procedures detailed above. Following virus adsorption, the compounds, prepared as 10 mg/mL stock solutions in DMSO were diluted with growth medium and were added to duplicate wells in four to eight selected concentrations. After incubation at 37° C. for 7-10 days, cell sheets were fixed, stained with crystal violet and microscopic plaques enumerated as described above. Drug effects were calculated as a percentage of reduction in number of plaques in the presence of each drug concentration compared to the number observed in the absence of drug.
# as §2
# [5] = Good et al.; cited from earlier work
# [6] = system: human cytomegalovirus (HCMV); conditions: cited from earlier work; for activity against HCMV: literature reports
# uninfected host cells = conditions: cited from earlier work
# [7] = system: human cytomegalovirus (HCMV); assay: Literature activity against HCMV replication in vitro; type: cell-based
# [8] = stationary human foreskin fibroblasts (HFF cells)
# [9] = Human alphaherpesvirus 1, ELISA in BSC-1 cells, read-out: 50% Inhibitory Concentration, HSV-1 Activity
# [10] = Human betaherpesvirus 5, plaque reduction in HFF cells
# [11] = Human alphaherpesvirus 1, BSC-1, read-out: 50% Inhibitory Concentration, HSV-1 Activity
SMILES,IC50 at 48 h [2] [µM],activity against HCMV [6],IC50 [1] [µM],"IC50 [3, 11] [µM]","IC50 ([4]; Human betaherpesvirus 5, HFF) [µM]",also measured
"CN(C)c1c(C#N)c2cc(Cl)c(Cl)cc2n1[C@@H]1O[C@H](CO)[C@@H](O)[C@H]1O [Compound 4.14, 5,6-Dichloro-2-dimethylamino-3-cyano-1-(β-D-ribofuranosyl)indole]",90,–,–,–,–,"IC50 [1, 8]: 100 µM; IC50 [3, 9]: > 100 µM; IC50 [4, 10]: 17 µM"
"OC[C@H]1O[C@@H](n2c(Cl)nc3cc(Cl)c(Cl)cc32)[C@H](O)[C@@H]1O [TCRB, 2,5,6-trichloro-1-(β-D-ribofuranosyl)benzimidazole]",–,potent and selective inhibitor,–,–,–,in vivo stability [5]: in vivo instability
"C[C@H]1O[C@@H](n2c(Cl)c(C=O)c3cc(Cl)c(Cl)cc32)[C@H](O)[C@@H]1O [Compound 4.97, 2,5,6-Trichloro-3-formyl-1-(5-deoxy-β-D-ribofuranosyl)indole]",25,–,32,20,0.3,–
"O=Cc1c(Cl)n([C@@H]2O[C@H](CO)[C@@H](O)[C@H]2O)c2cc(Cl)c(Cl)cc12 [Compound 4.3, 2,5,6-trichloro-3-formyl-1-(β-D-ribofuranosyl)indole]",45,even more active than TCRB,45,40,0.2,"IC50 ([6]; Chen thesis, read-out: IC50 against HCMV): 0.23 µM; CC50 (uninfected host cells; Chen thesis, read-out: CC50 against uninfected host cells): 45 µM; selectivity index (calculated by dividing the CC50 by the IC50) [7]: 195"
"CC(=O)OC[C@H]1O[C@@H](n2c(Br)c(C=O)c3cc(Cl)c(Cl)cc32)[C@H](O)[C@@H]1O [Compound 4.136, 5,6-Dichloro-2-bromo-3-formyl-1-(5-O-acetyl-β-D-ribofuranosyl)indole]",40,–,32,15,0.3,–
"COC(=N)c1c(Cl)n([C@@H]2O[C@H](CO)[C@@H](O)[C@H]2O)c2cc(Cl)c(Cl)cc12 [Compound 4.34, Methyl 2,5,6-Trichloro-1-(β-D-ribofuranosyl)indole-3-formimidate]",90,–,–,–,–,"IC50 [1, 8]: 100 µM; IC50 [3, 9]: 70 µM; IC50 [4, 10]: 0.4 µM"
"CC(=O)OC[C@H]1O[C@@H](n2c(Cl)c(C(C)=O)c3cc(Cl)c(Cl)cc32)[C@H](O)[C@@H]1O [Compound 4.43, 2,5,6-Trichloro-3-acetyl-1-(5-O-acetyl-β-D-ribofuranosyl)indole]",–,–,–,–,–,"antiviral activity ([4]; virus not specified, HCMV and HSV-1 were used): comparable to the fully deprotected analog"
CC(C)Nc1nc2cc(Cl)c(Cl)cc2n1[C@H]1O[C@@H](CO)[C@H](O)[C@@H]1O [Compound 1263W94],–,very active,–,–,–,–
"OC[C@H]1O[C@@H](n2c(Cl)cc3cc(Cl)c(Cl)cc32)[C@H](O)[C@@H]1O [Compound 4.2, 2,5,6-trichloro-1-(β-D-ribofuranosyl)indole, reference compound]",–,inactive,–,–,–,cytotoxicity (uninfected host cells; Chen et al.): non-cytotoxic
